# US6451853B1, “Small molecules that elicit a polarized Th1 response and for modulation of cellular immunity” (Dovetail Technologies, Inc, priority 1998, dated 2002)
# “And” between values parts separate entries of the source, which are not always exact repeats. Equal entries are not always repeated. Where two headings read alike, the source gives them in different places.
# Legend:
# in vivo = conditions: both, CD-1, mouse, iv
# [1] = system: panel of human T-cell lines; test: Surface TNF alpha expression on a panel of human T-cell lines; assay type: cell-based; conditions: data not shown
# [2] = system: Monocyte Chemokine Message levels; test: RNase protection assay of monocyte chemokine message levels; assay type: cell-based, human; conditions: Media + beta-alethine 20 mM; RPA phosphorimaging normalized on L32
# Procedure: Monocyte expression of chemokines was also assessed in beta-alethine-treated cells (Table 3). While IP-10 expression was decreased by beta-alethine, the levels of the chemoattractants MIP-1a and IL-8 were increased slightly. Bacterial infections are contained by an inflammatory response. MIP-1a recruits macrophages, T cells and eosinophils to the infection site, and IL-8 recruits neutrophils. Therefore both of these chemokines are important in fighting pathogen-induced infections.
# [3] = system: soluble TNF alpha release from human lymphocytes; test: Soluble TNF alpha in supernatants by ELISA; conditions: Media (unstimulated); drugs 20 mM; ELISA standard curve in pg/mL, unit not given
# HL60 targets = test: T cell-dependent cytotoxicity toward HL60 targets (MTT reduction assay)
# [4] = system: surface TNF alpha on human T cells; test: Surface TNF alpha expression on T cells by FACS (gating on CD3+ cells); conditions: for Change in with BT/without BT: 20 mM BT; for % Positive ± SD (T cells expressing high levels of surface TNF alpha) / MFI ± SD: PMA/ionomycin; for surface TNF alpha, overall MFI: With BT 20 mM; for surface TNF alpha level: unstimulated T cells, BT alone 20 mM, single donor
# [5] = system: TNF-R I on T cells (PBMCs); test: TNF receptor I expression on T cells by FACS
# CD-1 mice = conditions: for Mortality: CD-1 mice
# [6] = system: surface TNF alpha on human monocytes; test: Surface TNF alpha expression on monocytes by FACS (CD14+ cells); assay type: cell-based; design: TNF alpha from Monocytes, With BT / change with BT versus without BT: unit not given here; conditions: for TNF alpha from Monocytes, With BT / change with BT versus without BT: 20 mM BT; for surface TNF alpha expression: all drugs 20 mM
# Excerpt: The effect of NAC and BT, alone or in combination, on surface TNF alpha expression by stimulated or unstimulated monocytes (prepared from PBM) was examined. […] Table 6. While only a small proportion of T cells from each donor were responsive to the combination NAC/BT, the effect on surface TNF alpha expression in monocytes was significant.
# [7] = system: Cytokine mRNA from T cells (PBMC); test: RNase protection assay of cytokine mRNA in PBMC (T cells), with or without PMA/ionomycin; conditions: for PMA/ionomycin-induced upregulation of TNF alpha message: PMA/ionomycin stimulation
# [8] = stimulation 1 micromolar Ionomycin and 10 ng/ml PMA, 48 hrs
# [9] = stimulation 1 micromolar Ionomycin and 10 ng/ml PMA, individual donors/dates
# [10] = Media (no stimulation), individual donors/dates
# [11] = Stimulation, individual donors/dates
# [12] = BT 27 nM, no stimulation, 6 hours
# [13] = BT 2.7 uM, no stimulation, 6 hours
# [14] = BT 20 mM, no stimulation, 6 hours
structure (smiles),measurement,setting,value
"NCCC(=O)NCCSSCCNC(=O)CCN [BT, beta-alethine]",LD50 at 2 weeks,in vivo,> 100 mg/kg
same,surface TNF alpha expression,[1],induced upregulation
same,IL-8 message level,[2],"11,615,894"
same,IP-10 message level,[2],"55,214"
same,MIP-1 alpha message level,[2],"909,291"
same,MIP-1 beta message level,[2],"554,709"
same,Soluble TNF,[3],29
same,T cell dependent cytotoxic activity toward HL60 in the presence of neutralizing anti-TNF alpha antibodies,"HL60 targets; 20 mM BT, PMA/ionomycin stimulated, data not shown",inhibited
same,"T cell-Mediated Cytotoxicity, optical density at 540 nm ± SD","HL60 targets; PMA/ionomycin-stimulated T cells, 0.85 mM, 10:1 effector:target, 24 hours",.191 ± .003
same,Change in with BT/without BT,[4]; [8],84.527%
same,Change in with BT/without BT,[4]; [9],45.223% and 66.236% and 49.403% and 71.042% and 4.276% and 68.647% and 152.007% and 27.185% and 104.690% and 325.647%
same,% Positive ± SD (T cells expressing high levels of surface TNF alpha),"[4]; Dose 2.7 mM, 16 hours",10.86 ± .92%
same,MFI ± SD,"[4]; Dose 2.7 mM, 16 hours",94.52 ± 1.83
same,% Positive ± SD (T cells expressing high levels of surface TNF alpha),"[4]; Dose 20 mM, 16 hours",24.25 ± 6.25%
same,MFI ± SD,"[4]; Dose 20 mM, 16 hours",127.37 ± 12.5
same,% Positive ± SD (T cells expressing high levels of surface TNF alpha),"[4]; Dose .0085 mM, 16 hours",4.96 ± .41%
same,MFI ± SD,"[4]; Dose .0085 mM, 16 hours",59.84 ± 4.08
same,% Positive ± SD (T cells expressing high levels of surface TNF alpha),"[4]; Dose .027 mM, 16 hours",5.18 ± 1.73%
same,MFI ± SD,"[4]; Dose .027 mM, 16 hours",63.49 ± .28
same,% Positive ± SD (T cells expressing high levels of surface TNF alpha),"[4]; Dose .085 mM, 16 hours",8.4 ± .5%
same,MFI ± SD,"[4]; Dose .085 mM, 16 hours",74.18 ± 7.98
same,% Positive ± SD (T cells expressing high levels of surface TNF alpha),"[4]; Dose .27 mM, 16 hours",7.33 ± .38%
same,MFI ± SD,"[4]; Dose .27 mM, 16 hours",71.17 ± .77
same,% Positive ± SD (T cells expressing high levels of surface TNF alpha),"[4]; Dose .85 mM, 16 hours",9.38 ± 1.57%
same,MFI ± SD,"[4]; Dose .85 mM, 16 hours",81.93 ± 6.33
same,time for which increased surface TNF alpha expression was sustained,[4]; PMA/ionomycin-stimulated cells,over 50 hours
same,"surface TNF alpha expression, Time Course","[4]; Pma/iono, 6 hours, 2.7 mM",149
same,"surface TNF alpha expression, Time Course","[4]; Pma/iono, 6 hours, each drug 20 mM",112
same,"surface TNF alpha expression, Time Course","[4]; Pma/iono, 16 hours, 2.7 mM",179
same,"surface TNF alpha expression, Time Course","[4]; Pma/iono, 16 hours, each drug 20 mM",220
same,"surface TNF alpha expression, Time Course","[4]; Pma/iono, 24 hours, 2.7 mM",208
same,"surface TNF alpha expression, Time Course","[4]; Pma/iono, 24 hours, each drug 20 mM",226
same,"surface TNF alpha expression, Time Course","[4]; Pma/iono, 42 hours, 2.7 mM",120
same,"surface TNF alpha expression, Time Course","[4]; Pma/iono, 42 hours, each drug 20 mM",247
same,"surface TNF alpha expression, Time Course","[4]; Pma/iono, 68 hours, 2.7 mM",64
same,"surface TNF alpha expression, Time Course","[4]; Pma/iono, 68 hours, each drug 20 mM",174
same,"surface TNF alpha, overall MFI",[4]; [8],146.81
same,"surface TNF alpha, overall MFI",[4]; [9],164.48 and 83.65 and 123.87 and 25.93 and 48.53 and 105.59 and 435.04 and 25.17 and 508.43 and 292.59
same,"surface TNF alpha, overall MFI","[4]; stimulation with 1 ng PMA, individual donors",133.13 and 25.41
same,surface TNF alpha level,[4]; 15 hours post-exposure (control 25),75
same,surface TNF alpha level,[4]; forty hours (control 25),100
same,"surface TNF alpha expression, Time Course","[4]; unstimulated, 6 hours, 2.7 mM",22
same,"surface TNF alpha expression, Time Course","[4]; unstimulated, 6 hours, each drug 20 mM",32
same,"surface TNF alpha expression, Time Course","[4]; unstimulated, 16 hours, 2.7 mM",42
same,"surface TNF alpha expression, Time Course","[4]; unstimulated, 16 hours, each drug 20 mM",76
same,"surface TNF alpha expression, Time Course","[4]; unstimulated, 24 hours, 2.7 mM",47
same,"surface TNF alpha expression, Time Course","[4]; unstimulated, 24 hours, each drug 20 mM",67
same,"surface TNF alpha expression, Time Course","[4]; unstimulated, 42 hours, 2.7 mM",79
same,"surface TNF alpha expression, Time Course","[4]; unstimulated, 42 hours, each drug 20 mM",101
same,"surface TNF alpha expression, Time Course","[4]; unstimulated, 68 hours, 2.7 mM",30
same,"surface TNF alpha expression, Time Course","[4]; unstimulated, 68 hours, each drug 20 mM",41
same,TNF Receptor I Expression (mean fluorescent channel),"[5]; PMA/ionomycin + 20 mM BT, 20 hours",329
same,TNF Receptor I Expression (mean fluorescent channel),"[5]; PMA/ionomycin + 20 mM BT, 45 hours",548
same,TNF Receptor I Expression (mean fluorescent channel),"[5]; PMA/ionomycin + 20 mM BT, 69 hours",489
same,TNF Receptor I Expression (mean fluorescent channel),"[5]; unstimulated, 20 mM BT, 20 hours",136
same,TNF Receptor I Expression (mean fluorescent channel),"[5]; unstimulated, 20 mM BT, 45 hours",109
same,TNF Receptor I Expression (mean fluorescent channel),"[5]; unstimulated, 20 mM BT, 69 hours",96
same,gross pathology at necropsy,"CD-1 mice; mouse, in vivo",No gross pathology
same,Mortality,CD-1 mice; single bolus intravenous dose 67 mg/kg,0/2
same,Mortality,CD-1 mice; single bolus intravenous dose 333 mg/kg,1/3
same,Mortality,CD-1 mice; single bolus intravenous dose 667 mg/kg,2/2
same,"TNF alpha from Monocytes, With BT","[6]; Media (no stimulation), 48 hrs",14.22
same,change with BT versus without BT,"[6]; Media (no stimulation), 48 hrs",0.07037
same,"TNF alpha from Monocytes, With BT",[6]; [10],124.26 and 10.53 and 24.06
same,change with BT versus without BT,[6]; [10],78.87 and −44.17 and 18.58
same,"TNF alpha from Monocytes, With BT","[6]; Stimulation, 48 hrs",34.59
same,change with BT versus without BT,"[6]; Stimulation, 48 hrs",−6.107
same,"TNF alpha from Monocytes, With BT",[6]; [11],71.42 and 202.15 and 41.97 and 143.51 and 87.59
same,change with BT versus without BT,[6]; [11],11.54 and 249.1 and −52.59 and 126.7 and 127.7
same,surface TNF alpha expression,[6]; stimulated monocytes,induced significant surface TNF alpha expression
same,surface TNF alpha expression,[6]; unstimulated monocytes,not upregulated
same,% Change GAPDH mRNA,[7]; [12],−10.95%
same,% Change IFNg mRNA,[7]; [12],21.11%
same,% Change LTb mRNA,[7]; [12],27.48%
same,% Change TGFb1 mRNA,[7]; [12],26.69%
same,% Change TNFa mRNA,[7]; [12],10.04%
same,% Change TNFb mRNA,[7]; [12],42.88%
same,% Change GAPDH mRNA,[7]; [13],−4.78%
same,% Change IFNg mRNA,[7]; [13],20.17%
same,% Change LTb mRNA,[7]; [13],25.70%
same,% Change TGFb1 mRNA,[7]; [13],42.15%
same,% Change TNFa mRNA,[7]; [13],24.94%
same,% Change TNFb mRNA,[7]; [13],220.87%
same,% Change IFNg mRNA,[7]; [14],109.71% and 94.74% and 139.51%
same,% Change IL-1Ra mRNA,[7]; [14],30.84%
same,% Change IL-1a mRNA,[7]; [14],9.07%
same,% Change IL-1b mRNA,[7]; [14],60.09%
same,% Change IL-2 mRNA,[7]; [14],95.02%
same,% Change IL-4 mRNA,[7]; [14],135.82%
same,% Change IL-5 mRNA,[7]; [14],161.15%
same,% Change IL-8 mRNA,[7]; [14],10.65%
same,% Change IL-9 mRNA,[7]; [14],22.86%
same,% Change IL-13 mRNA,[7]; [14],83.76%
same,% Change IL-15 mRNA,[7]; [14],4.88%
same,% Change LTN* mRNA,[7]; [14],58.25%
same,% Change LTb mRNA,[7]; [14],117.13%
same,% Change MIP-1 alpha mRNA,[7]; [14],25.98%
same,% Change MIP-1 beta mRNA,[7]; [14],−4.79%
same,% Change RANTES mRNA,[7]; [14],−2.09%
same,% Change TGFb1 mRNA,[7]; [14],82.08%
same,% Change TNFa mRNA,[7]; [14],168.85%
same,% Change TNFb mRNA,[7]; [14],77.91%
same,ratio of TNF alpha: TGF beta message (densitometry),[7]; PMA/ionomycin + 20 mM BT (PMA/ionomycin alone 3.61),7.12
same,PMA/ionomycin-induced upregulation of TNF alpha message,"[7]; 2.7 mM BT, 6 hours",maintained
same,PMA/ionomycin-induced upregulation of TNF alpha message,"[7]; 20 mM BT, 6 hours",further enhanced
same,ratio of TNF alpha: TGF beta message (densitometry),[7]; media + 20 mM BT (media alone 0.092),1.36
